Tests used:
[1] = tested on: HDAC6 versus all other known HDAC isozymes; details: cited from earlier work
[2] = tested on: db/db mice; experiment: Body weight study in db/db mice; type: in vivo, mouse; details: SE-7552 50 mg/kg, i.p., daily
Procedure: (§1) Animals were housed at a 12 hours dark/light cycle, temperature and humidity controlled rooms. Mice were purchased from the Jackson LABoratory, except the HDAC6 global knockout (KO) mice, which were provided by Dr. Timothy A. Mckinsey (University of Colorado Anschutz Medical Campus, Aurora, CO, USA.). Mice were fed either regular chow or high fat diet (60 kcal % fat, Research Diets) to induce obesity (diet-induced obesity) and had free access to food and water unless specified. Body composition was analyzed with Bruker's minispec LF50 Body Composition Analyzer. Blood glucose was measured from tail vein by Contour blood glucose monitor system (Bayer). TubA (25 mg/kg body weight) or SE-7552 (50 mg/kg body weight) were administered within 1 hr before dark cycle daily by intraperitoneal (ip.) injections. For intraperitoneal injections, drugs or vehicle was injected at 25 uL volumes per animal. Mice and their food were measured daily or weekly to track body weight and food intake. Hematoxylin and eosin (H&E) staining of liver sections of diet-induced obese mice were done after one month of vehicle or TubA injections.

[3] = tested on: wild-type DIO mice; experiment: Diet-induced obesity study, daily intraperitoneal injections; type: in vivo, mouse
Procedure: as §1

SMILES	selectivity versus all other known HDAC isozymes [1]	weight loss (body weight change, FIG. 1f) [2]	obesity (body weight change, FIG. 1e) ([3]; SE-7552 50 mg/kg, i.p., daily)	diet-induced obesity (FIG. 2) ([3]; Tubastatin 25 mg/kg, daily i.p.)
CC(Nc1ncc(-c2nnc(C(F)F)o2)cn1)c1ccc(F)cc1 (stereo not shown) [SE7552]	About 1000 fold	ineffective at inducing weight loss	effectively reduces obesity	–
CN1CCc2c(c3ccccc3n2Cc2ccc(C(=O)NO)cc2)C1 [Tubastatin A]	–	–	–	Reverses Diet-Induced Obesity

Source: patent US20250263412A1, “NON-HYDROXAMATE HDAC6 INHIBITORS AND RELATED METHODS OF USE” (The Regents of the University of Michigan, priority 2021, published 2025)
